Experimental data taken from the supplement of paper PMC10307832.

How the values were obtained:
Test in all cases: relative viability (nuclei count vs DMSO), 5 days (fraction); higher = more cells survive
[1] = compound: C1COCCN1C2=NC(=NC3=C2OC4=C3C=CC=N4)C5=CC(=CC=C5)NC(=O)C6=CN=C(C=C6)N + N=C(N)NC(=N)NCCc1ccccc1 [Phenformin] (partner 250 µM)
In short: (§1)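 For relative viability, nuclei counts in treated wells were divided by those in vehicle wells. Lung cancer cell lines had been pin-tool dosed in 1536-well plates the day after seeding and cultured for 5 days, then fixed and stained in one step (final 0.05% Triton X-100, 1% formaldehyde, 1 ug/ml Hoechst) and imaged at 4×. Doses were one drug alone or a fixed anchor-drug dose plus five library-drug doses (not always all listed) in √10 steps, and values are duplicate-plate medians.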

SGI-1776 + Luminespib = compound: CN1CCC(CNc2ccc3ncc(-c4cccc(OC(F)(F)F)c4)n3n2)CC1 [SGI-1776] + CCNC(=O)c1noc(-c2cc(C(C)C)c(O)cc2O)c1-c1ccc(CN2CCOCC2)cc1 [Luminespib] (partner 0.01 µM)
In short: as §1

SGI-1776 + Crizotinib = compound: CN1CCC(CNc2ccc3ncc(-c4cccc(OC(F)(F)F)c4)n3n2)CC1 [SGI-1776] + C[C@@H](Oc1cc(-c2cnn(C3CCNCC3)c2)cnc1N)c1c(Cl)ccc(F)c1Cl [Crizotinib] (partner 1 µM)
In short: as §1

Entinostat + Lapatinib = compound: Nc1ccccc1NC(=O)c1ccc(CNC(=O)OCc2cccnc2)cc1 [Entinostat] + CS(=O)(=O)CCNCc1ccc(-c2ccc3ncnc(Nc4ccc(OCc5cccc(F)c5)c(Cl)c4)c3c2)o1 [Lapatinib] (partner 2 µM)
In short: as §1

Row | Cell Line | relative viability ([1]; first compound 0.02 µM) | relative viability ([1]; first compound 0.06325 µM) | relative viability ([1]; first compound 0.2 µM) | relative viability ([1]; first compound 0.6325 µM) | relative viability ([1]; first compound 2 µM) | relative viability (SGI-1776 + Luminespib; first compound 0.08 µM) | relative viability (SGI-1776 + Luminespib; first compound 0.8 µM) | relative viability (SGI-1776 + Luminespib; first compound 2.53 µM) | relative viability (SGI-1776 + Luminespib; first compound 8 µM) | relative viability (SGI-1776 + Crizotinib; first compound 0.08 µM) | relative viability (SGI-1776 + Crizotinib; first compound 0.8 µM) | relative viability (SGI-1776 + Crizotinib; first compound 2.53 µM) | relative viability (SGI-1776 + Crizotinib; first compound 8 µM) | relative viability (Entinostat + Lapatinib; first compound 0.02 µM) | relative viability (Entinostat + Lapatinib; first compound 0.06325 µM) | relative viability (Entinostat + Lapatinib; first compound 0.2 µM) | relative viability (Entinostat + Lapatinib; first compound 0.6325 µM) | relative viability (Entinostat + Lapatinib; first compound 2 µM)
1 | LXF-289 | 0.523 | 0.536 | 0.541 | 0.49 | 0.383 | 0.688 | 0.654 | 0.665 | 0.598 | 0.803 | 0.805 | 0.813 | 0.786 | 0.884 | 0.916 | 0.841 | 0.647 | 0.481
2 | NCI-H23 | 0.818 | – | 0.815 | 0.747 | 0.669 | 0.217 | 0.221 | 0.238 | 0.192 | 0.747 | 0.368 | 0.383 | 0.256 | 1.17 | 1.13 | 1.02 | 0.616 | 0.476
3 | NCI-H322M | 0.781 | 0.786 | 0.683 | 0.735 | 0.508 | 0.999 | 0.901 | 0.881 | 0.635 | 0.998 | 0.824 | 1.01 | 0.664 | 0.643 | 0.612 | 0.623 | 0.647 | 0.621
4 | NCI-H358 | – | 0.36 | 0.269 | 0.248 | 0.169 | 0.729 | 0.506 | 0.432 | 0.315 | 0.53 | 0.393 | 0.244 | 0.292 | 0.467 | 0.438 | 0.521 | 0.367 | 0.287
5 | NCI-H441 | 0.798 | 0.868 | 0.731 | 0.833 | 0.527 | 0.379 | 0.294 | 0.312 | 0.239 | 0.701 | 0.54 | 0.731 | 0.61 | – | – | – | – | –
6 | NCI-H522 | 0.638 | 0.701 | 0.63 | 1.49 | 0.599 | 1.16 | 1.1 | 1.09 | 0.972 | – | – | – | – | – | – | – | – | –
7 | NCI-H1299 | – | – | – | – | – | – | – | – | – | 0.969 | 0.969 | 0.917 | 0.807 | 0.927 | 0.933 | 0.956 | 0.805 | 0.571
8 | NCI-H1395 | 0.396 | 0.451 | 0.461 | 0.415 | 0.384 | 0.768 | 0.772 | 0.573 | 0.414 | – | – | – | – | 1.1 | 1.21 | 0.901 | 0.566 | 0.569
9 | NCI-H1623 | 0.634 | 0.587 | 0.6 | 0.562 | 0.407 | 0.468 | 0.612 | 0.576 | 0.506 | – | – | – | – | – | – | – | – | –
10 | NCI-H1703 | – | – | – | – | – | – | – | – | – | 1.17 | 0.521 | 0.272 | 0.124 | 1.22 | 1.17 | 1.59 | 1.05 | 0.453
11 | NCI-H1793 | 0.393 | 0.483 | 0.404 | 0.372 | 0.277 | 0.217 | 0.163 | 0.286 | 0.161 | – | – | – | – | 0.695 | 1.07 | 0.617 | 0.393 | 0.328
12 | NCI-H2342 | 0.651 | 0.564 | 0.565 | 0.695 | 0.576 | 0.695 | 0.767 | 0.721 | 0.64 | – | – | – | – | – | – | – | – | –
13 | SW 900 | 0.425 | 0.674 | 0.557 | 0.376 | 0.345 | 0.178 | 0.173 | 0.208 | 0.166 | – | – | – | – | – | – | – | – | –
